Experimental data from publication PMC12609530, “Capillary Electrophoresis as a Useful Tool to Separate Isomeric Opioid–Neurotensin Hybrid Peptides” (Molecules, 2025).
Like-named read-outs stand apart in the source and are kept apart here. Square brackets hold non-standard residues; d marks the D form. Peptide text beside a SMILES is read from it. Dmt = Cc1cc(O)cc(C)c1C[C@H](N)C(=O)O; Tle = CC(C)(C)[C@H](N)C(=O)O

Conditions: CE-UV 200 nm; for BenchTop Obtained Concentration, Mean ± SD / BenchTop Obtained Concentration, %: after 6 h at room temperature; for BenchTop Obtained Concentration, Mean ± SD: ACN/0.1% TFA extraction; for BenchTop Obtained Concentration, Mean ± SD / Freeze and Thaw Obtained Concentration, Mean ± SD / Short Term Obtained Concentration, Mean ± SD: mean ± SD for five replicates; for BenchTop Obtained Concentration, % / Freeze and Thaw Obtained Concentration, % / Short Term Obtained Concentration, %: % of spiked concentration, five replicates; for Freeze and Thaw Obtained Concentration, % / Freeze and Thaw Obtained Concentration, Mean ± SD: after three freeze and thaw cycles at −20 °C; for Short Term Obtained Concentration, % / Short Term Obtained Concentration, Mean ± SD: at −25 °C for 30 days
Procedure: To ensure the applicability of the method for bioanalytical studies, stability tests were conducted under various storage and handling conditions.
The stock solutions of PK20 and [Ile9]PK20 compounds at a concentration of 10,000 ng/mL were prepared by dissolving the appropriate amounts of the substances in a 25 mM phosphate buffer at pH 2.5. Calibration solutions at specific concentrations were prepared on their basis. All solutions were stored at −15 °C. […] Calibration solutions at concentrations of 10, 50, 100, 500, 1000, and 5000 ng/mL were prepared in both water and serum by adding appropriate volumes of the stock solutions to serum samples free of the tested analytes.
To a 100 µL serum sample, 200 µL of acetonitrile (ACN) containing 0.1% trifluoroacetic acid (TFA) was added then immediately mixed by vortexing and centrifuged at 20,000× g for 4 min. The resulting supernatant was filtered using an ultrafiltration centrifuge (MWCO 30,000; Microcon YM-30, Millipore Corporation, Bradford, MA, USA) and then lyophilized. The dry residue was dissolved in 100 µL of deionized water and introduced into the capillary. The extraction procedure for PK20 and [Ile9]PK20 compounds was performed for three concentration ranges, namely 20 ng/mL, 500 ng/mL, and 5000 ng/mL.
Samples were introduced into the system hydrodynamically at a pressure of 2 psi for 6 s. Electrophoresis was performed at a voltage of 10 kV (normal polarity, anode on the inlet side of the capillary) at a temperature of 25 °C. Between subsequent analyses, the capillary was rinsed with water for 2 min and with BGE for 3 min. After each series of analyses, the working buffer was replaced to ensure repeatable separations.

Structure (SMILES) | BenchTop Obtained Concentration, Mean ± SD (spiked 50 ng/mL in serum) [ng/mL] | BenchTop Obtained Concentration, % (spiked 50 ng/mL in serum) [%] | Freeze and Thaw Obtained Concentration, % (spiked 50 ng/mL in serum) [%] | Freeze and Thaw Obtained Concentration, Mean ± SD (spiked 50 ng/mL in serum) [ng/mL] | Short Term Obtained Concentration, % (spiked 50 ng/mL in serum) [%] | Short Term Obtained Concentration, Mean ± SD (spiked 50 ng/mL in serum) [ng/mL] | BenchTop Obtained Concentration, Mean ± SD (spiked 500 ng/mL in serum) [ng/mL] | BenchTop Obtained Concentration, % (spiked 500 ng/mL in serum) [%] | Freeze and Thaw Obtained Concentration, % (spiked 500 ng/mL in serum) [%] | Freeze and Thaw Obtained Concentration, Mean ± SD (spiked 500 ng/mL in serum) [ng/mL] | Short Term Obtained Concentration, % (spiked 500 ng/mL in serum) [%] | Short Term Obtained Concentration, Mean ± SD (spiked 500 ng/mL in serum) [ng/mL]
Cc1cc(O)cc(C)c1C[C@H](N)C(=O)N[C@H](CCCCN)C(=O)N[C@@H](Cc1ccccc1)C(=O)N[C@@H](Cc1ccccc1)C(=O)N[C@@H](CCCCN)C(=O)N[C@@H](CCCCN)C(=O)N1CCC[C@H]1C(=O)N[C@@H](Cc1ccccc1)C(=O)N[C@H](C(=O)N[C@@H](CC(C)C)C(=O)O)C(C)(C)C [PK20, H-Dmt-D-Lys-Phe-Phe-Lys-Lys-Pro-Phe-Tle-Leu-OH] (H-[Dmt][dK]FFKKPF[Tle]L-OH) | 23.92 ± 1.2 | 47.84 | 24.10 | 12.05 ± 1.5 | 95.04 | 47.52 ± 1.4 | 240.53 ± 0.9 | 48.11 | 25.24 | 126.20 ± 0.7 | 99.12 | 495.58 ± 1.1
CC[C@H](C)[C@H](NC(=O)[C@H](Cc1ccccc1)NC(=O)[C@@H]1CCCN1C(=O)[C@H](CCCCN)NC(=O)[C@H](CCCCN)NC(=O)[C@H](Cc1ccccc1)NC(=O)[C@H](Cc1ccccc1)NC(=O)[C@@H](CCCCN)NC(=O)[C@@H](N)Cc1c(C)cc(O)cc1C)C(=O)N[C@@H](CC(C)C)C(=O)O [[Ile9]PK20, H-Dmt-D-Lys-Phe-Phe-Lys-Lys-Pro-Phe-Ile-Leu-OH] (H-[Dmt][dK]FFKKPFIL-OH) | 24.46 ± 1.1 | 48.92 | 25.44 | 12.72 ± 1.4 | 97.70 | 48.85 ± 1.2 | 246.15 ± 1.0 | 49.23 | 25.51 | 127.53 ± 1.2 | 99.56 | 497.80 ± 1.1
